This assay concerns 885724-159-R-J1-PDC complex spheroid viability. As to the kind of experiment: Anticancer human tumor 885724-159-R-J1-PDC patient-derived pancreatic adenocarcinoma cell line growth inhibition [GQUAD]. The following applies: for viability, T/C: stronger effect = lower value. An excerpt:
DNA G-quadruplex Stabilizer Agents in Combinations in Complex Spheroids
A high-throughput screen of multi-cell type tumor spheroids was designed to identify active combinations of DNA G-quadruplex stabilizer agents and targeted small molecules. Complex spheroids include a stromal component modeled by human endothelial cells (HUVEC) and fibroblasts modeled by human mesenchymal stem cells (MSCs). The concentration ranges selected for each drug and investigational agent were based upon clinically achievable concentrations if the clinical Cmax of the agent was known.
Compounds. The drugs and investigational agents: pidnarulex (CX-5461; NSC782164), APTO-253 (NSC789042), BRACO-19 (NSC847499), peposertib (NSC802822), ceralasertib (NSC780249), elimusertib (NSC800525), camonsertib (NSC841442), AZD-1390 (NSC803789), olaparib (NSC753686), talazoparib (NSC767125), ART-558 (NSC835418), sotorasib (NSC818433), MRTX-1133 (NSC836407), SN-38 (NSC673596), topotecan (NSC609699), etoposide (NSC141540), doxorubicin (NSC123127), gemcitabine (NSC613327), 5-fluorouracil (NSC19893), paclitaxel (NSC125973), vemurafenib (NSC761431), panobinostat (NSC761190), R-306465 (JNJ-16241199; NSC773264), adavosertib (NSC754352), TP-3654 (NSC805149), carboplatin (NSC241240), KSQ-4279 (NSC840948), and staurosporine (NSC755774) were obtained from the National Cancer Institute (NCI) Developmental Therapeutics Program Chemical Repository (34). The FDA-approved anticancer drug set is available from the NCI Developmental Therapeutics Program. […] The stock solutions were prepared in dimethyl sulfoxide (DMSO, Sigma-Aldrich, St. Louis, MO, cat. D2650) at 800-fold the tested concentration and stored at -70 degrees C prior to their use. All drugs and investigational agents were tested over a range starting from a high concentration at or near the clinical Cmax and decreasing in half-log increments. If the clinical Cmax for an agent had not been determined, the highest concentration tested was 10 microM.
2.3 Cell Culture. All cells were maintained in an incubator at 37 degrees C and 5% CO2 with 95% humidity. The PDC lines were cultured according to standard operating procedures established by the NCI PDMR. All PDCs were thawed and cultured in Matrigel-coated flasks prepared with a working solution of 1X Ham's F-12 nutrient mix, without supplementation (Invitrogen, cat. 11765054), 100 U/mL penicillin-streptomycin (Invitrogen, cat. 15140122), and 2.5% Matrigel (Corning Inc., cat. 354248) for the first three passages. The 857933-349-R-J2-PDC line was cultured in 6C/Colon 1B media, which includes advanced DMEM/F-12 (Thermo Fisher Scientific, cat. 12634028), 10 mM HEPES (Thermo Fisher Scientific, cat. 15630080), 1X GlutaMAX supplement (Thermo Fisher Scientific, cat. 35050061), 0.1 mg/mL primocin (InvivoGen, cat. ant-pm-2), 10% defined fetal bovine serum, heat inactivated (HyClone Laboratories Inc., cat. SH30070.03HI), 50% L-WRN conditioned media (ATCC, cat. CRL-3276), 1.25 mM N-Acetyl-L-cysteine (Sigma-Aldrich, cat. A9165), 10 mM nicotinamide (Sigma-Aldrich, cat. N0636), 1X B-27 supplement (Thermo Fisher Scientific, cat. 17504044), 1X N-2 supplement (Thermo Fisher Scientific, cat. 17502048), 10 microM Y-27632 dihydrochloride (Tocris Bioscience, cat. 1254), and 50 ng/mL human EGF recombinant protein (Thermo Fisher Scientific, cat. PHG0311). The 485176-168-R4-J1-PDC line was cultured in Panc media, which includes all 6C/Colon 1B media components plus 100 ng/mL human FGF-10 (Thermo Fisher Scientific, cat. 100-26), 500 nM SB-431542 (Selleckchem, cat. S1067), and gastrin (Tocris, cat. 3006).
[…]

[1] abbreviates: curve of first compound, second compound 0.0316 µM.
The mark [2] stands for this setting: curve of first compound, second compound 0.1 µM.
Setting [3] is: curve of first compound, second compound 0.316 µM.
Where [4] appears, read: curve of first compound, second compound 1 µM.
The mark [5] stands for this setting: curve of first compound, second compound 3.16 µM.
[6] abbreviates: curve of first compound, second compound 10 µM.
Where [7] appears, read: second compound 0.0316 µM, first compound 0.0316 µM.
The mark [8] stands for this setting: second compound 0.0316 µM, first compound 0.1 µM.
The mark [9] stands for this setting: second compound 0.0316 µM, first compound 0.316 µM.
Setting [10] is: second compound 0.0316 µM, first compound 1 µM.
Setting [11] is: second compound 0.0316 µM, first compound 3.16 µM.
The mark [12] stands for this setting: second compound 0.0316 µM, first compound 10 µM.
[13] abbreviates: second compound 0.1 µM, first compound 0.0316 µM.
[14] abbreviates: second compound 0.1 µM, first compound 0.1 µM.
Setting [15] is: second compound 0.1 µM, first compound 0.316 µM.
[16] abbreviates: second compound 0.1 µM, first compound 1 µM.
Where [17] appears, read: second compound 0.1 µM, first compound 3.16 µM.
The mark [18] stands for this setting: second compound 0.1 µM, first compound 10 µM.
[19] abbreviates: second compound 0.316 µM, first compound 0.0316 µM.
Setting [20] is: second compound 0.316 µM, first compound 0.1 µM.
The mark [21] stands for this setting: second compound 0.316 µM, first compound 0.316 µM.
Where [22] appears, read: second compound 0.316 µM, first compound 1 µM.
[23] abbreviates: second compound 0.316 µM, first compound 3.16 µM.
[24] abbreviates: second compound 0.316 µM, first compound 10 µM.
Setting [25] is: second compound 1 µM, first compound 0.0316 µM.
Where [26] appears, read: second compound 1 µM, first compound 0.1 µM.
Where [27] appears, read: second compound 1 µM, first compound 0.316 µM.
The mark [28] stands for this setting: second compound 1 µM, first compound 1 µM.
[29] abbreviates: second compound 1 µM, first compound 3.16 µM.
Where [30] appears, read: second compound 1 µM, first compound 10 µM.
Where [31] appears, read: second compound 3.16 µM, first compound 0.0316 µM.
Where [32] appears, read: second compound 3.16 µM, first compound 0.1 µM.
Where [33] appears, read: second compound 3.16 µM, first compound 0.316 µM.
Setting [34] is: second compound 3.16 µM, first compound 1 µM.
The mark [35] stands for this setting: second compound 3.16 µM, first compound 3.16 µM.
Where [36] appears, read: second compound 3.16 µM, first compound 10 µM.
[37] abbreviates: second compound 10 µM, first compound 0.0316 µM.
Where [38] appears, read: second compound 10 µM, first compound 0.1 µM.
[39] abbreviates: second compound 10 µM, first compound 0.316 µM.
Where [40] appears, read: second compound 10 µM, first compound 1 µM.
Where [41] appears, read: second compound 10 µM, first compound 3.16 µM.
[42] abbreviates: second compound 10 µM, first compound 10 µM.

“And” between values parts separate entries of the source, which are not always exact repeats. Equal values may be shown once. Some results are limits rather than exact numbers.
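Also: spheroids exposed to agents for seven days before readout.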
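For viability, T/C in this document: percent of vehicle control viability where 100% = DMSO wells.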

Broadly, the IC50 is the concentration at which inhibition is half-maximal. In general, viability, T/C refers to the result in the treated group divided by that in the control group, in per cent. As for `Nc1ccn(C2OC(CO)C(O)C2(F)F)c(=O)n1` (centres undefined) + CN(C)c1ccc(Nc2c3ccc(NC(=O)CCN4CCCC4)cc3nc3cc(NC(=O)CCN4CCCC4)ccc23)cc1, the IC50 is, setting by setting: under setting [1], above 10 µM; under setting [2], above 10 µM; under setting [3], above 10 µM; under setting [4], above 10 µM; under setting [5], 1.83 µM; under setting [6], above 10 µM. Besides, the viability, T/C under setting [7] was 79.8%; the viability, T/C under setting [8] was 90.2%; the viability, T/C under setting [9] is 71%; the viability, T/C under setting [10] was 72.9%; the viability, T/C under setting [11] is 63.8%; the viability, T/C under setting [12] was 66.3%. The viability, T/C is, setting by setting: under setting [13], 102%; under setting [14], 89.3%; under setting [15], 72.8%; under setting [16], 64.2%; under setting [17], 68.6%; under setting [18], 67%. Further, the viability, T/C was 89.5% under setting [19]; 77.8% under setting [20]; 74.9% under setting [21]; 56.8% under setting [22]; 74% under setting [23]; 59.8% under setting [24]. For the same compound, the viability, T/C under setting [25] is 72%; the viability, T/C under setting [26] is 60.6%; the viability, T/C under setting [27] is 75%; the viability, T/C under setting [28] was 51.4%; the viability, T/C under setting [29] was 65.2%; the viability, T/C under setting [30] was 50.6%. Further, the viability, T/C is 76.8% under setting [31]; 64.1% under setting [32]; 60.3% under setting [33]; 47.1% under setting [34]; 52.5% under setting [35]; 44.7% under setting [36]. In addition, the viability, T/C was 72.6% under setting [37]; 63.9% under setting [38]; 47.9% under setting [39]; 61.2% under setting [40]; 52.1% under setting [41]; 52.5% under setting [42].
For the compound `O=c1[nH]cc(F)c(=O)[nH]1`, the viability, T/C by setting is: (compound 0.0316 µM) 96.3% and 85.1% and 106%; (compound 0.1 µM) 100% and 95.1% and 93.2%; (compound 0.316 µM) 96.9% and 89% and 95.5%; (compound 1 µM) 91.2% and 94% and 92.8%; (compound 3.16 µM) 94.3% and 94.6% and 93.9%; (compound 10 µM) 88.3% and 87.7% and 92%. Under “curve of compound”, the concentration for half-maximal inhibition (IC50) is above 10 µM.
`CC(C)n1c(=O)n(C)c2cnc3cc(F)c(-c4ccc(OCCCN5CCCCC5)nc4)cc3c21` + Cc1cnc(CNC(=O)c2c(=O)c3ccc(N4CCCN(C)CC4)nc3n3c2sc2ccccc23)cn1: the IC50 was above 10 µM under setting [1]; above 10 µM under setting [2]; above 10 µM under setting [3]; above 10 µM under setting [4]; 6.48 µM under setting [5]; 5.27 µM under setting [6]. Besides, the viability, T/C by setting is: under setting [7], 91.3%; under setting [8], 94.1%; under setting [9], 95.3%; under setting [10], 114%; under setting [11], 77.6%; under setting [12], 65.7%. For the same compound, the viability, T/C runs as follows: under setting [13], 108%; under setting [14], 107%; under setting [15], 96.1%; under setting [16], 106%; under setting [17], 93.6%; under setting [18], 67.2%. In addition, the viability, T/C is 92.6% under setting [19]; 93% under setting [20]; 88.5% under setting [21]; 108% under setting [22]; 81.2% under setting [23]; 64.2% under setting [24]. Further, the viability, T/C reads like this: under setting [25], 82.5%; under setting [26], 87.1%; under setting [27], 90.5%; under setting [28], 94.6%; under setting [29], 78.5%; under setting [30], 53.1%. In addition, the viability, T/C by setting is: under setting [31], 73.2%; under setting [32], 73.4%; under setting [33], 78.8%; under setting [34], 68.3%; under setting [35], 67.8%; under setting [36], 39.9%. Also, the viability, T/C reads like this: under setting [37], 76.1%; under setting [38], 71.1%; under setting [39], 73.8%; under setting [40], 70.8%; under setting [41], 61.7%; under setting [42], 35.3%.
Regarding `Nc1ccn(C2OC(CO)C(O)C2(F)F)c(=O)n1` (centres undefined), the viability, T/C is 94.4% and 88% and 85.7% (compound 0.0316 µM); 93.7% and 90.3% and 81.5% (compound 0.1 µM); 74.7% and 78.5% and 86.1% (compound 0.316 µM); 73.9% and 75.2% and 79.9% (compound 1 µM); 80.9% and 58.4% and 67% (compound 3.16 µM); 69% and 61% and 68.9% (compound 10 µM). For the setting “curve of compound”, the IC50 is above 10 µM.
For `COc1ncnc(C2CC2)c1-c1ncc2cnn(Cc3ccc(-c4nc(C(F)(F)F)cn4C(C)C)cc3)c2n1`, the viability, T/C is 86.6% and 90.5% and 93% (compound 0.0316 µM); 95.1% and 90.7% and 98.2% (compound 0.1 µM); 99% and 97.4% and 93.2% (compound 0.316 µM); 99.8% and 90.6% and 97.7% (compound 1 µM); 90.2% and 96% and 92.5% (compound 3.16 µM); 115% and 101% and 113% (compound 10 µM). The concentration for half-maximal inhibition (IC50) (curve of compound) was above 10 µM.
For the compound `Cc1[nH]c2ccccc2c1CCNCc1ccc(/C=C/C(=O)NO)cc1`, the viability, T/C reads like this: (compound 0.000999 µM) 92.3% and 106% and 93.5%; (compound 0.00316 µM) 91.4% and 98.9% and 103%; (compound 0.00999 µM) 95.6% and 86.5% and 91.7%; (compound 0.0316 µM) 108% and 83.9% and 98.7%; (compound 0.0999 µM) 95.6% and 86.5% and 74.5%; (compound 0.316 µM) 47.5% and 47.9% and 42.7%. The IC50 (curve of compound) was 0.298 µM and > 0.316 µM and 0.242 µM.
For `COc1cccc2c1C(=O)c1c(O)c3c(c(O)c1C2=O)CC(O)(C(=O)CO)CC3OC1CC(N)C(O)C(C)O1` (centres undefined), the viability, T/C by setting is: (compound 0.0316 µM) 92.3% and 103% and 104%; (compound 0.1 µM) 92.3% and 81.3% and 102%; (compound 0.316 µM) 80.3% and 79.5% and 78.9%; (compound 1 µM) 84.3% and 81.4% and 81.6%; (compound 3.16 µM) 38.4% and 40.1% and 34.5%; (compound 10 µM) 4.02% and 1.94% and 3.83%. Where the note is “curve of compound”, the IC50 is 2.35 µM and 2.39 µM and 2.14 µM.

The values above are taken from PubChem BioAssay AID2060502 (Molecular Pharmacology Branch, DTP, NCI, 2025).
